Drawing on paper PMC6265452, “An auxin controls bacterial antibiotics production” (Nucleic Acids Research, 2018), this text covers Kd for 2 molecules.

A word on the Kd: it is the free concentration of one partner at which half of the binding sites on the other are occupied at equilibrium, for simple one-to-one binding.

Molecules are shown by their SMILES. Read-outs that look alike come from different tables or passages of the source.

Assay [1] deals with T1, AdmX (Serratia plymuthica, UniProt P0DV33). Kind of assay: ITC (also DSF shift of […]°C, in vitro transcription repression). The class given is binding.
T1 sequence (P0DV33 whole entry): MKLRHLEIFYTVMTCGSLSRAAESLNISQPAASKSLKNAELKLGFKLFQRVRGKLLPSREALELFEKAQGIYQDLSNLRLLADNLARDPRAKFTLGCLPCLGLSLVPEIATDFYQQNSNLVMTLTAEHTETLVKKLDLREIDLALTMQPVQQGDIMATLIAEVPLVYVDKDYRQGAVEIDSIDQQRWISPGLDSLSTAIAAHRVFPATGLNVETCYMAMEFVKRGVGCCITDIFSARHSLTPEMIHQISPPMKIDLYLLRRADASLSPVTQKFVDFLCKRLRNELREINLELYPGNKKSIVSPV
In assay [2] the target is T1, AdmX. Described as above. The format is binding. This is another data set of the same source.

With `O=C(O)Cc1c[nH]c2ccccc12` [IAA, indole-3-acetic acid], at AdmX [1], the Kd was 60.9 µM.
Consider `O=C(O)C(=O)Cc1c[nH]c2ccccc12` [IPA, indole-3-pyruvic acid], for which the Kd on AdmX [2] was determined as 1.1 µM.
